The values that follow come from US7625917B2, “Thiolesters and uses thereof” (priority 1998, dated 2009).

The test relates to HIV-1RF. Put plainly: XTT cytoprotection assay (antiviral activity). The class given is cell-based.

Each structure is given as a SMILES string.

Take `O=C(O)CCCC[n+]1ccccc1.[Br-]` [Compound 53, 5-pyridiniovaleric acid]: the “antiviral activity (in words)” value was “without antiviral activity”. The EC50 (Human immunodeficiency virus 1, Table 6, read-out: EC50 %) was over 316 µM.
